{"source": "patent US11591564B2", "about": "“Peptide conjugated hydrogel substrate for the maintenance and expansion of human pluripotent stem cells” (University of Pittsburgh—Of the Commonwealth System of …, priority 2016, dated 2023)", "key": {"hESCs": {"tested_on": "hESCs", "experiment": "hESC attachment and viability on HAV10-modified LBL films, effect of EDC/NHS concentration", "format": "cell-based", "conditions": "EDC/NHS used for HAV10 conjugation of PEI(Alg/PAH)5Alg films; 6 hours attachment", "method": "Layer-by-layer (LBL) coating onto glass coverslips was initiated by incubation in 1.1 mg/ml Polyethylenimine (PEI) for 5 min. The polyelectrolyte solutions used for LBL deposition were 1.1 mg/ml low viscosity alginate (Alg) and poly (allylamine hydrochloride) (PAH), made using 0.1 M 2-(N-morpholino) ethanesulfonic acid (MES) buffer with 0.3M NaCl at pH 6.5. Polyelectrolyte multilayers were deposited by alternatively immersing slides into Alg, followed by PAH, for 1 min each, and were subsequently washed with 0.9% NaCl for 1 min between each deposition step. This process was repeated for 5 Alg/PAH layers, and the film was terminated with a final Alg layer (PEI(Alg/PAH)5Alg). Coverslips were dried at room temperature until used.\nPrepared PEI(Alg/PAH)5Alg films were functionalized with the e-cadherin mimicking peptide HAV10 using water soluble carbodiimide chemistry. […]\nHuman embryonic stem cells (hESCs) were treated with the ROCK inhibitor Y-27632 for 2 hours prior to harvesting. hESCs were harvested using enzyme-free dissociation buffer and were treated with the Vibrant DiD cell labeling solution, to allow for visualization of cell attachment (700 nm). […] Cell attachment for each condition was determined by normalizing the MFI of attached cells to the MFI of the total possible number of cells, for each well imaged."}, "hPSCs": {"tested_on": "hPSCs", "conditions": "hPSCs encapsulated in alginate beads (3D), 10-100 mM BaCl2 tested, day 6", "procedure": "hESCs were encapsulated using 10, 15, 20, 50 or 100 mM BaCl2 at a seeding density of 1×10^6 cells/ml of alginate solution. Alginate capsules were incubated for 6-8 min in the BaCl2 solution. Capsules were washed three times with DMEM/F12 and suspended in mTeSR1 ([sequence] Technologies, Vancouver, BC) with 10 mM of the ROCK inhibitor (rho-associated, coiled-coil containing protein kinase inhibitor) Y-27632 (e.g., 4-[(1R)-1-aminoethyl]-N-4-pyridinyl-trans-cyclohexanecarboxamide, dihydrochloride, [sequence] Technologies, Vancouver, BC) for 4 days, followed by 2 days in mTeSR1 alone to allow for colony formation. On day 6, viability of encapsulated hPSCs was analyzed by LIVE/DEAD staining, and imaged with fluorescent microscopy. The stock LIVE images from LIVE/DEAD analysis were processed using Metamorph Integrated Morphometry Analysis. hPSC colony data was generated for each colony within each image, measuring the area of the colony. This image processing was done on images taken on 5 capsules, each day for each condition."}, "H1 hESCs [1]": {"tested_on": "H1 hESCs", "experiment": "Day 1 cell attachment to peptide conjugated alginate hydrogel (DiD label, LI-COR MFI)", "format": "cell-based, human", "conditions": "peptide conjugated to alginate at 0-500 μg/ml", "method": "The alginate hydrogels were formed prior to peptide attachment. The culture well was coated with a thin layer of 1.1% (w/v) low viscosity alginate (Sigma-Aldrich) with 0.2% (v/v) gelatin (Sigma-Aldrich), which was allowed to dry overnight. 20 mM BaCl2 was used to rehydrate and simultaneously cross link the alginate in a thin hydrogel covering the bottom of the culture well. Peptide conjugation was done using water soluble carbodiimide chemistry. Alginate hydrogels were activated by incubating with 20 mM/10 mM EDC/NHS in buffer containing 0.3 M 2-(N-morpholino) ethanesulfonic acid (MES) and 0.1 M NaCl, for 15 min. The peptides were then added and incubated overnight at 4° C. to allow for peptide conjugation to the […] of the alginate hydrogel. After conjugation, peptide modified hydrogels were washed with 0.9% saline prior to seeding cells.\nCell Attachment. For cell attachment studies to the peptide modified hydrogels, hESC were first labeled with DiD according to manufactures instruction, a fluorescent lipophilic dye, which is incorporated in the cell membrane. hESC were treated with 10 μm Y-27632 (R&D Systems, Minneapolis, Min.) for 2 hours prior to harvesting by Accutase (Invitrogen) treatment for 5-7 min. […] Cell attachment was analyzed 24 hours after seeding. First, total cell number per well was quantified using the LI-COR Odyssey scanner and Image Studio software to obtain the total possible MFI. Dead and unattached cells were washed away and the number of attached cells per well was again quantified using the LI-COR Odyssey scanner Image Studio software. […]\nHaving confirmed peptide conjugation to the alginate hydrogel, our first step was to analyze cell attachment to each peptide conjugated substrate. […] After 1 day, cell attachment was quantified for each tested condition using the LI-COR Odyssey scanner. Percent cell attachment was determined by scanning the signal for total seeded cells (prior to wash) and attached cells (post-wash) and normalizing the attached cell MFI to the total cell MFI, for each peptide and peptide concentration (FIG. 9A)."}, "H1 hESCs [2]": {"tested_on": "H1 hESCs", "experiment": "Cell expansion by MTS assay, day 6 normalized to day 1", "format": "cell-based, human", "conditions": "6 days of propagation; alginate modified with 50 μg/ml peptide, or recombinant E-cadherin", "method": "To determine cell expansion, cellular metabolism was assayed on cells attached to alginate conjugated with 50 μg/ml of each peptide using the CellTiter 96® AQueous One Solution Cell Proliferation Assay (MTS) after 1 and 6 days of culture, according to manufacturer's instructions. Briefly, cells were incubated with the MTS solution at a 1:5 v/v dilution for 3 hours at 37° C. Absorbance intensity of the supernatant at 490 nm was measured using a Synergy 2 multi-mode Microplate Reader. Fold expansion was determined by normalizing the day 6 absorbance by the day 1 absorbance, for cells grown on each peptide-conjugated alginate substrate.\nSince high cell expansion is necessary to generate clinically relevant numbers of hPSCs, we next quantified the expansion potential of hPSCs grown on each peptide. Expansion potential was determined by normalizing cell number after 6 days of propagation, by day 1 cell number using MTS."}, "H1 hESCs [3]": {"tested_on": "H1 hESCs", "experiment": "Pluripotency after propagation, qRT-PCR of OCT4 and Nanog", "format": "cell-based, human", "conditions": "6 days on alginate conjugated with 50 μg/ml peptide", "method": "(§1) hESC seeded on the peptide modified alginate hydrogels were propagated for 4 days in mTeSR1 with 10 μm Y-27632 prior to DE induction. DE was induced using 100 ng/ml ActivinA (R&D Systems) with 25 ng/ml Wnt3A (R&D Systems) for 4 days. Quantitative Reverse Transcriptase Polymerase Chain Reaction. mRNA was isolated using the NucleoSpin RNA II kit (Macherey-Nagel, Bethlehem, Pa.). cDNA was obtained using ImpromII Reverse Transcription (Promega, Madison, Wis.). Each PCR reaction contained 5 μl SYBR Green Master Mix (Agilent, Santa Clara, Calif.), 2 μl nuclease free H2O, 2 μl primer, and 10 cDNA. Samples were normalized to the house keeping gene GAPDH and analyzed relative to UD hESCs using the ΔΔCt method. Gene expression was measured with quantitative polymerase chain reaction (qRT-PCR) using an MX3005P system (Agilent).\nHaving confirmed that the substrates supported attachment and propagation of hPSCs, the next step was to analyze the maintenance of hPSC pluripotency after propagation. hPSC pluripotency is the ability to become any cell type in the body, and along with self-renewal, is the defining characteristic of hPSCs. The maintenance of pluripotency is critical for the downstream differentiation of hPSC into any functional cell types, for cell therapy applications. hPSCs were seeded on alginate conjugated with 50 μg/ml of HAV10, ADT10, HAV6, or ADT, and propagated for 6 days. […] As before, cell morphology was similar across each peptide, and appeared to have similar morphology to the typical hPSC colony (FIG. 12A)."}, "H1 hESCs [4]": {"tested_on": "H1 hESCs", "experiment": "Directed differentiation to definitive endoderm, qRT-PCR of SOX17 and FOXA2", "format": "cell-based, human", "conditions": "for FOXA2 gene expression, fold increase / SOX17 gene expression, upregulation compared to undifferentiated hESC controls: after DE induction (ActivinA + Wnt3A, 4 days); for FOXA2 expression, difference compared to Matrigel / SOX17 expression, difference compared to Matrigel: after DE induction", "method": "as §1\nHaving confirmed that hPSCs maintained high pluripotency after being propagated on the E-cadherin mimicking substrates, the next question was if the differentiation potency was also maintained. To evaluate differentiation potential, cells were induced toward the definitive endoderm (DE) germ layer."}}, "note": "“And” between values parts separate entries of the source, which are not always exact repeats. Equal values may be shown once. No end group written: not given here.", "data": [{"compound": "1-ethyl-3-(-3-dimethylaminopropyl) carbodiimide hydrochloride (EDC)/N-hydroxysuccinimide (NHS) [EDC/NHS]", "values": [{"measurement": "toxicity towards hPSC attachment and viability", "setting": "hESCs", "value": "mild toxicity"}]}, {"compound": "[Ba+2].[Cl-].[Cl-]", "note": "[Barium Chloride (BaCl2), Barium Chloride]", "values": [{"measurement": "BaCl2 concentration supportive and strongly inductive of hPSC growth", "setting": "hPSCs", "value": "< 15", "unit": "mM"}]}, {"compound": "ADTPPV (also: conjugated to alginate hydrogel, site not given here) [ADT6]", "values": [{"measurement": "peptide concentration at which cell attachment peaked", "setting": "H1 hESCs [1]", "value": 50, "unit": "µg/mL"}, {"measurement": "fold expansion of hPSCs (day 6 / day 1)", "setting": "H1 hESCs [2]", "value": 11, "unit": "fold"}, {"measurement": "Nanog gene expression, upregulation compared to Matrigel", "setting": "H1 hESCs [3]", "value": "on par with Matrigel"}, {"measurement": "OCT4 gene expression, upregulation compared to Matrigel", "setting": "H1 hESCs [3]", "value": "on par with Matrigel"}, {"measurement": "FOXA2 gene expression, fold increase", "setting": "H1 hESCs [4]", "value": 174, "unit": "fold"}, {"measurement": "SOX17 gene expression, upregulation compared to undifferentiated hESC controls", "setting": "H1 hESCs [4]", "value": 3400, "unit": "fold"}]}, {"compound": "LFSHAVSSNG (also: conjugated to alginate hydrogel, site not given here) [HAV10]", "values": [{"measurement": "peptide concentration at which cell attachment peaked", "setting": "H1 hESCs [1]", "value": 50, "unit": "µg/mL"}, {"measurement": "fold expansion of hPSCs (day 6 / day 1)", "setting": "H1 hESCs [2]", "value": "approximately 23 fold"}, {"measurement": "FOXA2 expression, difference compared to Matrigel", "setting": "H1 hESCs [4]", "value": "no statistical difference"}, {"measurement": "SOX17 expression, difference compared to Matrigel", "setting": "H1 hESCs [4]", "value": "no statistically significant difference"}, {"measurement": "FOXA2 gene expression, fold increase", "setting": "H1 hESCs [4]", "value": 497, "unit": "fold"}, {"measurement": "SOX17 gene expression, upregulation compared to undifferentiated hESC controls", "setting": "H1 hESCs [4]", "value": "~15000", "unit": "fold"}]}, {"compound": "QGADTPPVGV (also: conjugated to alginate hydrogel, site not given here) [ADT10]", "values": [{"measurement": "cell attachment compared among peptides", "setting": "H1 hESCs [1]", "value": "highest cell attachment among all peptides"}, {"measurement": "fold expansion of hPSCs (day 6 / day 1)", "setting": "H1 hESCs [2]", "value": "approximately 14 fold"}, {"measurement": "Nanog gene expression, upregulation compared to Matrigel", "setting": "H1 hESCs [3]", "value": "1.5 fold and 1.6 fold"}, {"measurement": "OCT4 gene expression, upregulation compared to Matrigel", "setting": "H1 hESCs [3]", "value": "3 fold and 3.6 fold"}, {"measurement": "FOXA2 expression, difference compared to Matrigel", "setting": "H1 hESCs [4]", "value": "no statistical difference"}, {"measurement": "SOX17 expression, difference compared to Matrigel", "setting": "H1 hESCs [4]", "value": "no statistically significant difference"}, {"measurement": "FOXA2 gene expression, fold increase", "setting": "H1 hESCs [4]", "value": 409, "unit": "fold"}, {"measurement": "SOX17 gene expression, upregulation compared to undifferentiated hESC controls", "setting": "H1 hESCs [4]", "value": "~13700", "unit": "fold"}]}, {"compound": "SHAVSS (also: conjugated to alginate hydrogel, site not given here) [HAV6]", "values": [{"measurement": "fold expansion of hPSCs (day 6 / day 1)", "setting": "H1 hESCs [2]", "value": 16, "unit": "fold"}, {"measurement": "Nanog gene expression, upregulation compared to Matrigel", "setting": "H1 hESCs [3]", "value": 1.5, "unit": "fold"}, {"measurement": "OCT4 gene expression, upregulation compared to Matrigel", "setting": "H1 hESCs [3]", "value": 2, "unit": "fold"}, {"measurement": "FOXA2 gene expression, fold increase", "setting": "H1 hESCs [4]", "value": 355, "unit": "fold"}, {"measurement": "SOX17 gene expression, upregulation compared to undifferentiated hESC controls", "setting": "H1 hESCs [4]", "value": 5900, "unit": "fold"}]}]}
